# Data as given in paper PMC5590075, “Synthesis, Antimicrobial, and Antioxidant Activities of Chalcogen-Containing Nitrone Derivatives from (R)-citronellal” (Medicines, 2017).
# Where “and” joins values, the source holds several entries; their conditions need not be identical. Equal values may be shown once.
# How the values were obtained:
# [1] = Ferric ion reducing antioxidant power (FRAP); details: mean ± SD (n = 3)
# Procedure: The antioxidant properties of the synthesized compounds (5a–d and 10) were evaluated by three different methods in vitro: DPPH (1,1-diphenyl-2-picryl-hydrazyl) and ABTS^+ (2,2′-azino-bis(3-ethylbenzthiazoline-6-sulfonic acid) radical scavenging ability and ferric ion reducing antioxidant power (FRAP). All drugs were dissolved in dimethyl sulfoxide (DMSO) at concentrations of 1–500 µM. These assays were performed according to the literature and details of these experiments are described elsewhere (see the ‘Results and Discussion’ section for the references).
# (§1) values, as calculated by the following equation:
# I% = [(Ac−As/Ac) × 100] (1)
# 3. Ferric ion reducing antioxidant power (FRAP)
# reducing capacity of compounds 5a–d and 10.
# [8] with slight modifications. […]
# [2] = DPPH radical scavenging; details: for DPPH radical scavenging, percentage of inhibition in relation to control: mean ± SD (n = 3); for DPPH radical scavenging activity (in words): 10–500 μM tested
# Procedure: The antioxidant properties of the synthesized compounds (5a–d and 10) were evaluated by three different methods in vitro: DPPH (1,1-diphenyl-2-picryl-hydrazyl) and ABTS^+ (2,2′-azino-bis(3-ethylbenzthiazoline-6-sulfonic acid) radical scavenging ability and ferric ion reducing antioxidant power (FRAP). All drugs were dissolved in dimethyl sulfoxide (DMSO) at concentrations of 1–500 µM. These assays were performed according to the literature and details of these experiments are described elsewhere (see the ‘Results and Discussion’ section for the references). […]
# 2.3. Antioxidant activity assays
# The antioxidant properties of the synthesized compounds were evaluated by three different methods in vitro: DPPH and ABTS+ radical scavenging activity and ferric ion reducing antioxidant power (FRAP). All drugs were dissolved in dimethyl sulfoxide (DMSO). The experimental results were given as the means ± standard deviation (SD) to show the variations among the groups. The statistical analysis was performed using one‐way analysis of variance (ANOVA) followed by Newman‐Keuls multiple comparison test when appropriate. The differences were considered statistically significant at a probability of less than 5% (p < 0.05). All tests were performed at least three times in duplicate. The IC50 values (the concentration of sample required to scavenge 50% of the free radicals) were calculated from the graph of the scavenging effect percentage versus the […]
# 2.4. Radical Scavenging Activity
# To determine if compounds 5a–d and 10 present in vitro antioxidant activity against free radicals, DPPH and ABTS+ scavenging capability were evaluated at different concentrations.
# The DPPH scavenging activity of compounds 5a–d and 10 (10–500 μM) was determined in accordance with the method of Sharma and Bhat and the decrease in the absorbance at 517 nm […]
# The ABTS radical scavenging activity was determined according to the method described by Erel. Different concentrations of compounds 5a–d and 10 (10–500 μ M) were mixed with the ABTS+ solution, and the decrease in the absorbance at 734 nm was recorded. […]
# as §1
# I% = [(Ac−As/Ac) × 100] (1) […]
# [3] = tested on: Escherichia coli O157: H7 NCTC 12900; assay: agar disk diffusion test; assay type: cell-based; details: E. coli O157:H7, 1.0 × 10^8 CFU.mL^−1; 20 μL compound diluted in DMSO (1:1) per 6 mm disc; streptomycin 10 µg; mean of two repetitions
# From the text: (§2) To evaluate the antimicrobial potential of the synthesized compounds, the following reference strains of bacteria, that are economically important in foods, were employed: Gram-positive Listeria monocytogenes ATCC 7644, Staphylococcus aureus ATCC 25923, and Bacillus cereus ATCC 11778; Gram-negative Salmonella Typhimurium ATCC 14028, Escherichia coli O157: H7 NCTC 12900 and the clinically important Pseudomonas aeruginosa ATCC 15442.
# (§3) The antimicrobial activity assay using the disk diffusion test was realized using the methodology that is recommended by the Clinical Laboratory Standards Institute (CLSI). The determination of the minimum inhibitory concentration (MIC) and minimum bactericidal concentration (MBC) was performed using the macro dilution tube method, in accordance with Rota et al., with modifications. Details of these assays are provided in the Supplemental Material. […]
# (§4) 2.1. Antimicrobial activity assay using the disk diffusion test
# (§5) The disk diffusion test followed the methodology recommended by the Clinical Laboratory Standards Institute CLSI [4]. The inoculum was standardized by standard McFarland to the concentration of 10^8 CFU.mL−1 and spread on the surface of a Petri dish containing Mueller‐Hinton (MH) agar. Then, the paper disc (6 mm) was put on a plate impregnated with 20 μL of the testing compound previously diluted in DMSO (1:1) and incubated at 37 °C for 24 hours. Zone of inhibition ≥20 mm were considered as strong inhibition, <20–12 mm as moderate inhibition, and <12 mm no inhibition. A positive control with streptomycin antibiotic (10 μg) and a negative one, with paper discs impregnated with distilled water, were used […]
# (§6) 2.4. Radical Scavenging Activity […]
# (§7) The ABTS radical scavenging activity was determined according to the method described by Erel. Different concentrations of compounds 5a–d and 10 (10–500 μ M) were mixed with the ABTS+ solution, and the decrease in the absorbance at 734 nm was recorded.
# [4] = tested on: Staphylococcus aureus ATCC 25923; assay: agar disk diffusion test; assay type: cell-based; details: S. aureus, 1.0 × 10^8 CFU.mL^−1; 20 μL compound diluted in DMSO (1:1) per 6 mm disc; streptomycin 10 µg; mean of two repetitions
# From the text: as §2, §3, §4, §5, §6, §7
# [5] = tested on: Pseudomonas aeruginosa ATCC 15442; assay: agar disk diffusion test; assay type: cell-based; details: P. aeruginosa, 1.0 × 10^8 CFU.mL^−1; 20 μL compound diluted in DMSO (1:1) per 6 mm disc; streptomycin 10 µg; mean of two repetitions
# From the text: as §2, §3, §4, §5, §6, §7
# [6] = tested on: Bacillus cereus ATCC 11778; assay: agar disk diffusion test; assay type: cell-based; details: B. cereus, 1.0 × 10^8 CFU.mL^−1; 20 μL compound diluted in DMSO (1:1) per 6 mm disc; streptomycin 10 µg; mean of two repetitions
# From the text: as §2, §3, §4, §5, §6, §7
# [7] = tested on: Listeria monocytogenes ATCC 7644; assay: agar disk diffusion test; assay type: cell-based; details: L. monocytogenes, 1.0 × 10^8 CFU.mL^−1; 20 μL compound diluted in DMSO (1:1) per 6 mm disc; streptomycin 10 µg; mean of two repetitions
# From the text: as §2, §3, §4, §5, §6, §7
# [8] = tested on: Salmonella Typhimurium ATCC 14028; assay: agar disk diffusion test; assay type: cell-based; details: S. Typhimurium, 1.0 × 10^8 CFU.mL^−1; 20 μL compound diluted in DMSO (1:1) per 6 mm disc; streptomycin 10 µg; mean of two repetitions
# From the text: as §2, §3, §4, §5, §6, §7
Structure (SMILES),"Ferric ion reducing antioxidant power (FRAP), absorbance at 593 nm ([1]; 5 μM)","Ferric ion reducing antioxidant power (FRAP), absorbance at 593 nm ([1]; 10 μM)","Ferric ion reducing antioxidant power (FRAP), absorbance at 593 nm ([1]; 50 μM)","Ferric ion reducing antioxidant power (FRAP), absorbance at 593 nm ([1]; 100 μM)","DPPH radical scavenging, percentage of inhibition in relation to control ([2]; 100 μM) [%]","DPPH radical scavenging, percentage of inhibition in relation to control ([2]; 500 μM) [%]",DPPH radical scavenging activity (in words) [2],Inhibition Zone [3] [mm],Inhibition Zone [4] [mm],Inhibition Zone [5] [mm],Inhibition Zone [6] [mm],Inhibition Zone [7],Inhibition Zone [8] [mm],"Ferric ion reducing antioxidant power (FRAP), absorbance at 593 nm ([1]; 1 μM)","Ferric ion reducing antioxidant power (FRAP), absorbance at 593 nm ([1]; 500 μM)"
"CC(C)=CCCC(C)C(/C=[N+](\C)[O-])Sc1ccccc1 (stereo not shown) [5a, (E)-N,3,7-Trimethyl-2-(phenylthio)oct-6-en-1-imine oxide]",0.165 ± 0.007,0.207 ± 0.019,0.572 ± 0.023,1.039 ± 0.067,2.43 ± 1.08,20.31 ± 1.26,demonstrated DPPH radical scavenging activity,11,15,8.5,21.5,18 mm,8.5,,
"CC(C)=CCCC(C)(C/C=[N+](\C)[O-])Sc1ccccc1 (stereo not shown) [5c, (E)-N,3,7-trimethyl-3-(phenylthio)oct-6-en-1-imine oxide]",,0.153 ± 0.047,0.543 ± 0.047,1.121 ± 0.160,2.43 ± 0.61,29.34 ± 1.00,demonstrated DPPH radical scavenging activity,21.5,24,24,24.5,26.0 mm and 26 mm,,,
"CC(C)=CCCC(C)C/C=[N+](\C)[O-] (stereo not shown) [5d, (E)-N,3,7-trimethyloct-6-en-1-imine oxide]",0.280 ± 0.022,0.412 ± 0.055,1.198 ± 0.024,,,,did not present effect,22.5,24.5,23,29,31.0 mm and 31 mm,23,0.166 ± 0.008,
"CC(C)=CCC[C@@H](C)C(/C=N/O)[Se]c1ccccc1 (stereo partly drawn) [compound 10, (3R,E)-3,7-dimethyl-2-(phenylselanyl)oct-6-enal oxime]",,0.084 ± 0.010,0.180 ± 0.008,0.257 ± 0.007,,,did not present effect,9,22,9,19,21 mm,10.5,,1.291 ± 0.045
